Results: ChEMBL document CHEMBL1127403, “L-N6-(1-iminoethyl)lysine: a selective inhibitor of inducible nitric oxide synthase” (J Med Chem, 1994)

Target: Nitric oxide synthase 1 (Rattus norvegicus, UniProt P29476)
Experiment: Tested for inhibition of rat brain […] nitric oxide synthase

Chain of Nitric oxide synthase 1 (P29476 whole entry): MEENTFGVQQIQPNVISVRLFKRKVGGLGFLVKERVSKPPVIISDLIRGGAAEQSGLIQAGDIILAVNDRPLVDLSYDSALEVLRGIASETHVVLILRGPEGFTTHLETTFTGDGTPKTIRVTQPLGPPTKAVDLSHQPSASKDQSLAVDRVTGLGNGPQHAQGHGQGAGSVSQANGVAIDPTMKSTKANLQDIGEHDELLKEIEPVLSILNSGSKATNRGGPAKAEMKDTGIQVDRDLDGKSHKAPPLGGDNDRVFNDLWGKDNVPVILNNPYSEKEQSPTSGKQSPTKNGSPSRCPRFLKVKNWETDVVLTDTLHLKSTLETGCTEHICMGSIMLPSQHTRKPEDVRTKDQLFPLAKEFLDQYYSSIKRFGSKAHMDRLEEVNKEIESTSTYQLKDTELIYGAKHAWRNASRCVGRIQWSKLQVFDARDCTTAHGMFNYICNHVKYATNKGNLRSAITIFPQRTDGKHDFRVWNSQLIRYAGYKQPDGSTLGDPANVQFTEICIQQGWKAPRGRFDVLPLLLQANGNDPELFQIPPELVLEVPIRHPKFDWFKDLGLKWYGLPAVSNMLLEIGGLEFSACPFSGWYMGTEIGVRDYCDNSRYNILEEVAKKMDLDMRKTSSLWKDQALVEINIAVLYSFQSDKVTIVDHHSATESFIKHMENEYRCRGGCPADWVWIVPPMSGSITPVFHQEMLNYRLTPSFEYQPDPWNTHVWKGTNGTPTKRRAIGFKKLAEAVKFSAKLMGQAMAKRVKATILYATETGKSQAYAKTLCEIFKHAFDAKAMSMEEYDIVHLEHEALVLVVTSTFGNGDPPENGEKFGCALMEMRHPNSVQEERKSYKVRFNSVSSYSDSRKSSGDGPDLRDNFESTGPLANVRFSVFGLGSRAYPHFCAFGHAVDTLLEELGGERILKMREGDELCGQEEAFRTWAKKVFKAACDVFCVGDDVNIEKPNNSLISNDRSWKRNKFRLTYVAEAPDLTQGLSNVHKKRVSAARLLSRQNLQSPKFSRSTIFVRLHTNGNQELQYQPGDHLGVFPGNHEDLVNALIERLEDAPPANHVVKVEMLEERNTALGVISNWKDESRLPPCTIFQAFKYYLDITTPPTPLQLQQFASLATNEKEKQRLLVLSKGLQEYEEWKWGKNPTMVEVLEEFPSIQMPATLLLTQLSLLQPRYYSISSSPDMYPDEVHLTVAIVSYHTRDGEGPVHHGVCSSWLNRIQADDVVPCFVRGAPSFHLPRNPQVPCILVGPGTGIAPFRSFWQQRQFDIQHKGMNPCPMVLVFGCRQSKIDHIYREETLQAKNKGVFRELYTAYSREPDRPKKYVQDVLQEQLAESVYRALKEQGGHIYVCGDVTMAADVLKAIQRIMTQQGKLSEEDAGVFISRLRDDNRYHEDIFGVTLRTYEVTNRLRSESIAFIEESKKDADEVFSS

Row | IC50 [µM] | SMILES
1 | 2800 | CC(=N)NCCCC[C@@H](N)C(=O)O
2 | 808 | CC(=N)NCCCCCC(N)C(=O)O (racemic)
3 | 92 | CC(=N)NCCCC[C@H](N)C(=O)O [L-NIL]

Target: T1, Nitric oxide synthase, inducible (Mus musculus, UniProt P29477)
T1 sequence (P29477 whole entry): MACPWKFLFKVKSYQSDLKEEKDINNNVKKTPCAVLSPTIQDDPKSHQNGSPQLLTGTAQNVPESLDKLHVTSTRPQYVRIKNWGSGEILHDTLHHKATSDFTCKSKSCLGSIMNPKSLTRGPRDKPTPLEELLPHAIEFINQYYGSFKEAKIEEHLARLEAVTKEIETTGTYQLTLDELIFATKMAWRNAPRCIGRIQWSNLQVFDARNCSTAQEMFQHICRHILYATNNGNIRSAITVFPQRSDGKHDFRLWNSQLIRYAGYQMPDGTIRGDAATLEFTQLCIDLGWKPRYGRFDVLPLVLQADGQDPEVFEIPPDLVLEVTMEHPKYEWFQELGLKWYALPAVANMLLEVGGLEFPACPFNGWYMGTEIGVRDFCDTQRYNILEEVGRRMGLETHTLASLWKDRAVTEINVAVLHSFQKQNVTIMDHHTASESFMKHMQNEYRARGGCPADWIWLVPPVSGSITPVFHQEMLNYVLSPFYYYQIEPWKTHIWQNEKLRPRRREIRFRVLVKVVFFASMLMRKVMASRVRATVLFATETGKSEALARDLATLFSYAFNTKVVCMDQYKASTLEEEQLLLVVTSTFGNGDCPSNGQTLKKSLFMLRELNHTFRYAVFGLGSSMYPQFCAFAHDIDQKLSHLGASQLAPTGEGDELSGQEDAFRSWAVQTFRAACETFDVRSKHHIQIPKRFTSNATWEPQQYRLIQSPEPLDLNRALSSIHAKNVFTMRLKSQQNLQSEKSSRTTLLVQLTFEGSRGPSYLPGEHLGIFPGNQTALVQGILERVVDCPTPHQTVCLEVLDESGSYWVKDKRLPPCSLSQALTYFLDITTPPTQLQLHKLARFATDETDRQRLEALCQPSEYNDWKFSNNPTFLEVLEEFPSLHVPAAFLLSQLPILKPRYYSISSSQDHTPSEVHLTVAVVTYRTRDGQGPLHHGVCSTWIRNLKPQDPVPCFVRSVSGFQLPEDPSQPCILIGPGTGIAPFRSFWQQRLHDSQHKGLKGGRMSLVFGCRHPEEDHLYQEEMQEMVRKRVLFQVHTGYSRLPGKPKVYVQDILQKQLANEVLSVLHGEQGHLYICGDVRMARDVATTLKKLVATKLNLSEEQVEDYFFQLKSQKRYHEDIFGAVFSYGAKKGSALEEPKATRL
Experiment: Tested for inhibition of mouse inducible nitric oxide synthase

Row | IC50 [µM] | SMILES
4 | 336 | CC(=N)NCCCC[C@@H](N)C(=O)O
5 | 73 | CC(=N)NCCCCCC(N)C(=O)O (racemic)
6 | 3.3 | CC(=N)NCCCC[C@H](N)C(=O)O [L-NIL]
7 | 3.9 | CC(=N)NCCC[C@H](N)C(=O)O [L-NIO]

Row | SMILES | IC50 [µM]
8 | N=C(NCCC[C@H](N)C(=O)O)N[N+](=O)[O-] [NITROARGININE] | 0.5

System: not listed separately
Experiment: Selectivity is the ratio of IC50 of mouse inducible NOS and Rat brain constitutive NOS

Row | Selectivity | SMILES
9 | 8 | CC(=N)NCCCC[C@@H](N)C(=O)O
10 | 11 | CC(=N)NCCCCCC(N)C(=O)O (racemic)
11 | 28 | CC(=N)NCCCC[C@H](N)C(=O)O [L-NIL]
